Measurements taken from the Kinase Knowledgebase extract (Sharma et al. 2016).

target: MAPK14 (human) (UniProt Q16539); assay: Inhibition of MAPK14 Kinase Activity
Sequence (Q16539 whole entry, looked up): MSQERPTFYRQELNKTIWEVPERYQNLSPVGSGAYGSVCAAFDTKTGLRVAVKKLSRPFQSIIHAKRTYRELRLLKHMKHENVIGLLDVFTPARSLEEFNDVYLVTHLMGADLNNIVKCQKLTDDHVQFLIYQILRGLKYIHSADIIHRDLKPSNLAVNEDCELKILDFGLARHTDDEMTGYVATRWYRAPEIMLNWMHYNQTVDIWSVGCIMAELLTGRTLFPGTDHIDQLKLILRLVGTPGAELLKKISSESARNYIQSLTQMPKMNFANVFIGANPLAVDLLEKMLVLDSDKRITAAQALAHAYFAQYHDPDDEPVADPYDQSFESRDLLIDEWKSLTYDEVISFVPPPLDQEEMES

Row | SMILES | IC50 [µM]
1 | O=C(Cc1ccccc1)NC1CC(Cl)C(N2CC(Oc3ccc(F)cc3F)CCC2=O)C(Cl)C1 (stereo not drawn) | ≤ 10
2 | O=C1CCC(Oc2cc(Cl)cc(Cl)c2)CN1C1C(Cl)CCCC1Cl (stereo not drawn) | ≤ 10
3 | O=C1CCC(Sc2cc(Cl)cc(Cl)c2)CN1c1c(Cl)cncc1Cl (stereo not drawn) | ≤ 10
4 | Cc1ccc(CC2CSC(=O)N(c3c(Cl)cccc3Cl)C2)c(C)c1 (stereo not drawn) | ≤ 10
5 | O=C1CCC(Sc2ccc(Cl)cc2Cl)CN1c1c(Cl)cncc1Cl (stereo not drawn) | ≤ 10
6 | O=C1OCC(Cc2cc(Cl)cc(Cl)c2)CN1c1c(Cl)cccc1Cl (stereo not drawn) | ≤ 10
7 | O=C1NCC(Cc2cc(Cl)cc(Cl)c2)CN1c1c(Cl)cccc1Cl (stereo not drawn) | ≤ 10
8 | O=C1CCC(Oc2cccc3ccccc23)CN1C1C(Cl)CCCC1Cl (stereo not drawn) | ≤ 10
9 | O=C1SCC(Cc2ccc(Cl)cc2Cl)CN1c1c(Cl)cccc1Cl (stereo not drawn) | ≤ 10
10 | O=C1CCC(Sc2cc(F)cc(F)c2)CN1C1C(Cl)CCCC1Cl (stereo not drawn) | ≤ 10
11 | Cc1ccc(OC2CCC(=O)N(C3C(Cl)CCCC3Cl)C2)c(C)c1 (stereo not drawn) | ≤ 10
12 | Cc1ccc(CC2CN(c3c(Cl)cccc3Cl)C(=O)CO2)cc1 (stereo not drawn) | ≤ 10
13 | O=C1NCC(Cc2cccc3ccccc23)CN1c1c(Cl)cccc1Cl (stereo not drawn) | ≤ 10
14 | COc1ccccc1OC1CCC(=O)N(C2C(Cl)CCCC2Cl)C1 (stereo not drawn) | ≤ 10
15 | CN1CC(Cc2ccc(Cl)cc2Cl)CN(c2c(Cl)cccc2Cl)C1=O (stereo not drawn) | ≤ 10
16 | O=C1CCC(Sc2ccc(F)cc2F)CN1C1C(Cl)CCC(CO)C1Cl (stereo not drawn) | ≤ 10
17 | O=C1CSC(Cc2ccccc2)CN1c1c(Cl)cccc1Cl (stereo not drawn) | ≤ 10

The remaining lines, values ahead:

Row | IC50 [µM] | SMILES
18 | ≤ 10 | Nc1ncc(Cl)c(N2CC(Cc3ccc(F)cc3F)CCC2=O)c1Cl (stereo not drawn)
19 | ≤ 10 | O=C1CCC(Cc2ccc(Cl)cc2)CN1c1c(Cl)ccnc1Cl (stereo not drawn)
20 | ≤ 10 | O=C1CCC(Cc2ccc(F)cc2F)CN1c1c(Cl)cc(O)cc1Cl (stereo not drawn)
21 | ≤ 10 | CC(=O)NC1CC(Cl)C(N2CC(Cc3ccc(F)cc3F)CCC2=O)C(Cl)C1 (stereo not drawn)
22 | ≤ 10 | O=C(Cc1ccccc1)NC1CCC(Cl)C(N2CC(Cc3ccc(F)cc3F)CCC2=O)C1Cl (stereo not drawn)
23 | ≤ 10 | O=C1COC(Cc2ccc(F)cc2F)CN1c1c(Cl)cccc1Cl (stereo not drawn)
24 | ≤ 10 | Cc1cc(C(=O)N(C)C)cc(C)c1N1CC(Cc2ccc(F)cc2F)CCC1=O (stereo not drawn)
25 | ≤ 10 | CCOC(=O)CNc1cc(Cl)c(N2CC(Cc3ccc(F)cc3F)CCC2=O)c(Cl)c1 (stereo not drawn)
26 | ≤ 10 | Cc1cc(C(=O)NCCCC(=O)O)cc(C)c1N1CC(Cc2ccc(F)cc2F)CCC1=O (stereo not drawn)
27 | ≤ 10 | Cc1cccc(C)c1N1C[C@@H](NS(=O)(=O)c2ccc(F)cc2F)CCC1=O
28 | ≤ 10 | O=C(Cc1ccccc1)Nc1cnc(Cl)c(N2CC(Cc3ccc(F)cc3F)CCC2=O)c1Cl (stereo not drawn)
29 | ≤ 10 | O=C1CCC(Cc2ccc(F)cc2F)CN1C1C(Cl)CC(O)CC1Cl (stereo not drawn)
30 | ≤ 10 | CC(=O)Nc1cnc(Cl)c(N2CC(Oc3ccc(F)cc3F)CCC2=O)c1Cl (stereo not drawn)
31 | ≤ 10 | O=C1CCC(Oc2cc(F)cc(F)c2)CN1c1c(Cl)ccnc1Cl (stereo not drawn)
32 | ≤ 10 | O=C(Cc1ccccc1)Nc1cc(Cl)c(N2CC(Cc3ccc(F)cc3F)CSC2=O)c(Cl)c1 (stereo not drawn)
33 | ≤ 10 | Nc1ccc(Cl)c(N2CC(Sc3ccc(F)cc3F)CCC2=O)c1Cl (stereo not drawn)
34 | ≤ 10 | O=C1CCC(Cc2ccc(F)cc2F)CN1C1C(Cl)CCC(CO)C1Cl (stereo not drawn)
35 | ≤ 10 | O=C1CCC(Cc2ccc(F)cc2)CN1c1c(Cl)cncc1Cl (stereo not drawn)
36 | ≤ 10 | Nc1cc(Cl)c(N2CC(C(=NO)c3ccc(F)cc3F)CCC2=O)c(Cl)c1 (stereo not drawn)
37 | ≤ 10 | O=C1CCC(CO)(Cc2ccc(F)cc2F)CN1c1c(Cl)cccc1Cl (stereo not drawn)
38 | ≤ 10 | Cc1cc(C)cc(CC2CCC(=O)N(c3c(Cl)cncc3Cl)C2)c1 (stereo not drawn)
39 | ≤ 10 | O=C1CCC(Cc2ccc(F)cc2F)CN1c1c(Cl)cc([N+](=O)[O-])cc1Cl (stereo not drawn)
40 | ≤ 10 | COC(=O)/C=C/c1cc(Cl)c(N2CC(Cc3ccc(F)cc3F)CCC2=O)c(Cl)c1 (stereo not drawn)
41 | ≤ 10 | O=C1CCC(Cc2ccc(F)cc2F)CN1c1c(Cl)cc(C#CCO)cc1Cl (stereo not drawn)
42 | ≤ 10 | CC(C)(C)OC(=O)N(CCNC(N)=O)c1cc(Cl)c(N2CC(Cc3ccc(F)cc3F)CCC2=O)c(Cl)c1 (stereo not drawn)
43 | ≤ 10 | N[C@@H](Cc1ccc(O)cc1)C(=O)Nc1cc(Cl)c(N2CC(Cc3ccc(F)cc3F)CCC2=O)c(Cl)c1 (stereo partly drawn)
